From patent publication US9790221B2, “Heteroaryl compounds as IRAK inhibitors and uses thereof” (Merck Patent GmbH, priority 2014, dated 2017) come the findings set out here.

The structures appear in SMILES notation.

Assay [1] concerns the target IRAK1 (His-TEV-IRAK1 (194-712)) (Homo sapiens (Human), UniProt P51617). In words: IRAK1 enzymatic assay. It is filed as biochemical. How it is done:
IRAK1 is a human purified recombinant enzyme (His-TEV-IRAK1 (194-712)). In this assay, IRAK-1 hydrolyses ATP and autophosphorylates. Measurement of IRAK-1 inhibition was performed in streptavidin coated 384well FlashPlate (PerkinElmer #SMP410A).
His-TEV-IRAK-1 (15 ng/well), ATP (1 μM, [33P]ATP 0.25 μCi/well) and compounds in DMSO (range of concentrations from 20 µM to 1 nM) or controls (2% DMSO) were incubated for 3 hours at 30° C. in assay buffer: Hepes pH7.0 50 mM, Fatty acid-free BSA 0.1%, Dithiothreitol DTT 2 mM, MgCl2 10 mM, EGTA 0.5 mM, Triton-X-100 0.01%. Kinase reaction was stopped by addition of EDTA. Supernatant was discarded, plates were washed three times with 150 mM NaCl and radioactivity was then measured in a Microbeta Trilux reader.

The target in a further assay is IRAK4 (Homo sapiens (Human), UniProt Q9NWZ3). In words: IRAK4 enzymatic assay. It is filed as biochemical. How it is done:
IRAK4 is a human purified recombinant enzyme ([…]. IRAK4 hydrolyses ATP, autophosphorylates and phosphorylates a Serine/Threonine generic peptidic substrate (STK: 61ST1BLC from CisBio International based in Bagnols/Cèze FR).
Measurement of IRAK-4 inhibition was performed in streptavidin coated 384well FlashPlate (PerkinElmer #SMP410A). His-TEV-IRAK4 (20 ng/well), ATP (2 μM, [^33P]ATP 0.25 µCi/well), STK1-biotin peptide (300 nM) and compounds in DMSO (range of concentrations from 20 µM to 1 nM) or controls (2% DMSO) were incubated for 3 hours at 30° C. in assay buffer: Hepes pH7.0 50 mM, Fatty acid-free BSA 0.1%, Dithiothreitol DTT 2 mM, MgCl2 10 mM, EGTA 0.5 mM, Tween-20 0.01%, MnCl2 5 mM.
Kinase reaction was stopped by addition of EDTA. Supernatant was discarded, plates were washed three times with 150 mM NaCl and radioactivity was then measured in a Microbeta Trilux reader.

IRAK4, sequence (Q9NWZ3 whole entry): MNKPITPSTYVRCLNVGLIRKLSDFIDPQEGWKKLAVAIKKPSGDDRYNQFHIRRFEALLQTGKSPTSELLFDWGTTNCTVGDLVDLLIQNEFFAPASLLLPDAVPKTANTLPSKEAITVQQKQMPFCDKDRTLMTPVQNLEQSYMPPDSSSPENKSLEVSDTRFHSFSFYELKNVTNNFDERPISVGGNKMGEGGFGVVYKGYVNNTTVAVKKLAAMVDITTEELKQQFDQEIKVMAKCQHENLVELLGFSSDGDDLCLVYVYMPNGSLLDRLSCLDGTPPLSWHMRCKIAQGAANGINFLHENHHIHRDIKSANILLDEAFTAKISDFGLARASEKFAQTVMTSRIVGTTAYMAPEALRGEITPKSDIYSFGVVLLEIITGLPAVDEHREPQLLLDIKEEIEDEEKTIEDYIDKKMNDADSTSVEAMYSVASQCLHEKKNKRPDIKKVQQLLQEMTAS
IRAK1 (His-TEV-IRAK1 (194-712)), sequence (P51617 194-712): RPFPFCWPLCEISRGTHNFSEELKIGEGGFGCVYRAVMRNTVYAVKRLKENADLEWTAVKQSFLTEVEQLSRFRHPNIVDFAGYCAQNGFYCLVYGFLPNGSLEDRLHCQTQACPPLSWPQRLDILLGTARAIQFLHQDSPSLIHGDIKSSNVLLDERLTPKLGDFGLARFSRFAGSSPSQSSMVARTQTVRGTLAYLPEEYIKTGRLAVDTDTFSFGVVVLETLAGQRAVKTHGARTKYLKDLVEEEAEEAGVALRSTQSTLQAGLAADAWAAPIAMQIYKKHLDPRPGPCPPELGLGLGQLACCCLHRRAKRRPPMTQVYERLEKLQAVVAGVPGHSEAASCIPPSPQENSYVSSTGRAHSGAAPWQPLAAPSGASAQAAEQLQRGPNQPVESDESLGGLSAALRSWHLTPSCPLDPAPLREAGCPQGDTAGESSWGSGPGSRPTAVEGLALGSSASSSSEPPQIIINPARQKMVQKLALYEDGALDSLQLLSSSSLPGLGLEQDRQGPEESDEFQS

As for `Cn1cc(-c2cccc(-c3ncc(-c4cnn(C)c4)c(NC4CCC4)n3)c2)cn1` [Example 31], the half-maximal inhibitory concentration (IC50) (in assay [1]; at IRAK4) was 100 to 1000 nM throughout.
Turning to `CC(=O)NC[C@H]1C[C@H](Nc2nc(-c3cccc(-c4cnn(C)c4)c3)ncc2-c2cnn(C)c2)C1` [Example 212, N-(3-{5-(1-Methyl-1H-pyrazol-4-yl)-2-[3-(1-methyl-1H-pyrazol-4-yl)-phenyl]-pyrimidin-4-ylamino}-cyclobutylmethyl)-acetamide], the IC50 in assay [1] is more than 5000 nM; against IRAK4, 100 to 1000 nM.
The like results for `Cn1cc(-c2cccc(-c3ncc(-c4cnn(C)c4)c(N[C@H]4CC[C@@H](N5CCOCC5)CC4)n3)c2)cn1` [Example 263] were, in that order, more than 5000 nM and 1000 to 5000 nM.
The like results for `Cn1cc(-c2cccc(-c3ncc(-c4ccn(C)n4)c(NCCCO)n3)c2)cn1` [Example 68] were, in that order, 1000 to 5000 nM and 100 to 1000 nM.
The matching figures for `Cn1cc(-c2cccc(-c3ncc(-c4ccn(C)n4)c(NC4CCC4)n3)c2)cn1` [Example 27, Cyclobutyl-{5-(1-methyl-1H-pyrazol-3-yl)-2-[3-(1-methyl-1H-pyrazol-4-yl)-phenyl]-pyrimidin-4-yl}-amine]: 1000 to 5000 nM and 100 to 1000 nM.
`Cn1cc(-c2cccc(-c3ncc(-c4cnn(C)c4)c(NC[C@H]4CC[C@H](O)C4)n3)c2)cn1` (racemic) [Example 165]: the half-maximal inhibitory concentration (IC50) in assay [1] was 100 to 1000 nM; at IRAK4, less than 100 nM.
The matching figures for `Cn1cc(-c2cccc(-c3ncc(-c4ccn(C)n4)c(NC4CC5(CC(N)C5)C4)n3)c2)cn1` (stereo not shown) [Example 98]: 1000 to 5000 nM and 100 to 1000 nM.
The matching figures for `Cn1cc(-c2cccc(-c3ncc(-c4ccn(C)n4)c(NCCO)n3)c2)cn1` [Example 100]: 1000 to 5000 nM and 100 to 1000 nM.
The like results for `CC(=O)N[C@@H]1CCC[C@@H]1CNc1nc(-c2cccc(-c3cnn(C)c3)c2)ncc1-c1cnn(C)c1` (relative stereo) [Example 206, N-[(Cis)-2-({5-(1-Methyl-1H-pyrazol-4-yl)-2-[3-(1-methyl-1H-pyrazol-4-yl)-phenyl]-pyrimidin-4-ylamino}-methyl)-cyclopentyl]-acetamide] were, in that order, more than 5000 nM and 100 to 1000 nM.
Turning to `Cn1cc(-c2cccc(-c3ncc(-c4cnn(C)c4)c(NCC4CCC4)n3)c2)cn1` [Example 163], the IC50 in assay [1] is 100 to 1000 nM; on IRAK4, less than 100 nM.
With `Cn1cc(-c2cccc(-c3ncc(-c4cnn(C)c4)c(NC4CCC5CN(S(C)(=O)=O)CC54)n3)c2)cn1` (stereo not shown) [Example 168], the figures for the IC50 (in assay [1]; on IRAK4) were more than 5000 nM and less than 100 nM, respectively.
The like results for `Cc1cc(-c2cccc(-c3cnn(C)c3)c2)ncc1-c1cnn(C2CCOCC2)c1` [Example 24, 4-Methyl-2-[3-(1-methyl-1H-pyrazol-4-yl)-phenyl]-5-[1-(tetrahydro-pyran-4-yl)-1H-pyrazol-4-yl]-pyridine] were, in that order, more than 5000 nM and 1000 to 5000 nM.
The like results for `CC(=O)NCC1CCC(Nc2nc(-c3cccc(-c4cnn(C)c4)c3)ncc2-c2cnn(C)c2)CC1` (stereo not shown) [Example 198] were, in that order, 1000 to 5000 nM and less than 100 nM.
The matching figures for `CC(=O)N1CCC(Nc2nc(-c3cccc(-c4cnn(C)c4)c3)ncc2-c2cnn(C)c2)CC1` [Example 255]: 100 to 1000 nM and 100 to 1000 nM.
Take `Cn1cc(-c2cccc(-c3ncc(-c4ccn(C)n4)c(NC[C@H]4CCNC[C@H]4O)n3)c2)cn1` (racemic) [Example 116]: the IC50 in assay [1] is more than 5000 nM; on IRAK4, 100 to 1000 nM.
On to `Cn1cc(-c2cccc(-c3ncc(-c4cnn(C)c4)c(NCC4CNCCO4)n3)c2)cn1` (stereo not shown) [Example 59], for which the values for the IC50 (in assay [1]; against IRAK4) were more than 5000 nM and 100 to 1000 nM, respectively.
Consider `Cn1cc(-c2cccc(-c3ncc(-c4cnn(C)c4)c(NC[C@H]4CCNC[C@H]4O)n3)c2)cn1` (racemic) [Example 126], for which the figures for the IC50 (in assay [1]; at IRAK4) were more than 5000 nM and 100 to 1000 nM, respectively.
In the case of `Cn1cc(-c2cccc(-c3ncc(-c4cnn(C)c4)c(NC4CCCCN(S(C)(=O)=O)C4)n3)c2)cn1` (stereo not shown) [Example 178], the IC50 (in assay [1]; on IRAK4) was 100 to 1000 nM each time.
For the molecule `Cn1cc(-c2cccc(-c3ncc(-c4cnn(C)c4)c(NC[C@H]4CC[C@@H](O)CC4)n3)c2)cn1` [Example 155], the values for the IC50 (in assay [1]; against IRAK4) were more than 5000 nM and less than 100 nM, respectively.
The like results for `Cn1cc(-c2cccc(-c3ncc(-c4cnn(C)c4)c(NCCN4CCC(O)CC4)n3)c2)cn1` [Example 110] were, in that order, more than 5000 nM and 1000 to 5000 nM.
The like results for `Cn1cc(-c2cccc(-c3ncc(-c4cnn(C)c4)c(N4CCC(CN)C4)n3)c2)cn1` (stereo not shown) [Example 264] were, in that order, more than 5000 nM and 1000 to 5000 nM.
The matching figures for `Cn1cc(-c2cccc(-c3ncc(-c4ccn(C)n4)c(NCCCN4CCCC4=O)n3)c2)cn1` [Example 72]: more than 5000 nM and 1000 to 5000 nM.
As to `Cn1cc(-c2cccc(-c3ncc(-c4nnc(C(=O)N5CC[C@@H](O)C5)s4)c(NCC4CNC4)n3)c2)cn1` [Example 106], the figures for the IC50 (in assay [1]; at IRAK4) were more than 5000 nM and less than 100 nM, respectively.
In the case of `Cn1cc(-c2cccc(-c3ncc(-c4cnn(C)c4)c(NCCN4CCNC4=O)n3)c2)cn1` [Example 58], the half-maximal inhibitory concentration (IC50) (in assay [1]; on IRAK4) was 1000 to 5000 nM each time.
`Cn1cc(-c2cccc(-c3ncc(-c4cnn(C)c4)c(N4CCNCC4)n3)c2)cn1` [Example 148]: the IC50 in assay [1] is more than 5000 nM; on IRAK4 it was 100 to 1000 nM.
For the molecule `Cn1cc(-c2cccc(-c3ncc(-c4cnn(C)c4)c(NC[C@H]4CCN(S(C)(=O)=O)C4)n3)c2)cn1` [Example 174], the IC50 is 100 to 1000 nM in assay [1] and less than 100 nM at IRAK4.
The like results for `Cn1cc(-c2cccc(-c3ncc(-c4cnn(C)c4)c(NCCCN4CCOCC4)n3)c2)cn1` [Example 51] were, in that order, more than 5000 nM and 1000 to 5000 nM.
The like results for `CC(=O)NC1CCC(Nc2nc(-c3cccc(-c4cnn(C)c4)c3)ncc2-c2nnc(C)s2)CC1` (stereo not shown) [Example 205] were, in that order, 100 to 1000 nM and less than 100 nM.
The matching figures for `Cn1cc(-c2cccc(-c3ncc(-c4cnn(C)c4)c(NCC4CCCC4NS(C)(=O)=O)n3)c2)cn1` (stereo not shown) [Example 203]: 1000 to 5000 nM and 100 to 1000 nM.
As to `Cn1cc(-c2cccc(-c3ncc(-c4cnn(C)c4)c(N[C@@H]4CC[C@H](NS(C)(=O)=O)C4)n3)c2)cn1` (racemic) [Example 176], the IC50 in assay [1] was 1000 to 5000 nM; at IRAK4, less than 100 nM.
The matching figures for `Cn1cc(-c2cccc(-c3ncc(-c4ccn(C)n4)c(NC4CC4)n3)c2)cn1` [Example 29]: 1000 to 5000 nM and 100 to 1000 nM.
The like results for `Cn1cc(-c2cccc(-c3ncc(-c4ccn(C)n4)c(NC4CC(F)C4)n3)c2)cn1` (stereo not shown) [Example 80] were, in that order, more than 5000 nM and 100 to 1000 nM.
Consider `Cn1cc(-c2cccc(-c3ncc(-c4ccn(C)n4)c(NC4CC(O)C4)n3)c2)cn1` (stereo not shown) [Example 82], for which the IC50 in assay [1] was in the range of 1000 to 5000 nM; at IRAK4 it was 100 to 1000 nM.
The like results for `Cn1cc(-c2cccc(-c3ncc(-c4ccn(C)n4)c(N[C@H]4CC[C@@H](N)CC4)n3)c2)cn1` [Example 111] were, in that order, 100 to 1000 nM and less than 100 nM.
The like results for `Cn1cc(-c2cccc(-c3ncc(-c4cnn(C)c4)c(NC4CC5CC4N(S(C)(=O)=O)C5)n3)c2)cn1` (stereo not shown) [Example 189] were, in that order, more than 5000 nM and more than 5000 nM.
The like results for `Cn1cc(-c2cccc(-c3ncc(-c4ccn(C)n4)c(NCC4CCNC4)n3)c2)cn1` (stereo not shown) [Example 144] were, in that order, more than 5000 nM and 100 to 1000 nM.
Regarding `Cn1cc(-c2cccc(-c3ncc(-c4cnn(C)c4)c(NCCCN4CCOC4=O)n3)c2)cn1` [Example 78], the figures for the IC50 (in assay [1]; at IRAK4) were 1000 to 5000 nM and 100 to 1000 nM, respectively.
The matching figures for `Cn1cc(-c2cccc(-c3ncc(-c4cnn(C)c4)c(NC4CCC5CNCC54)n3)c2)cn1` (stereo not shown) [Example 150]: more than 5000 nM and 100 to 1000 nM.
Regarding `Cn1cc(-c2cccc(-c3ncc(-c4ccn(C)n4)c(NC4CCCC4)n3)c2)cn1` [Example 33], the IC50 (in assay [1]; against IRAK4) was 1000 to 5000 nM throughout.
Regarding `Cn1cc(-c2cccc(-c3ncc(-c4cnn(C)c4)c(NC4CCN(S(C)(=O)=O)CC4)n3)c2)cn1` [Example 14, (1-Methanesulfonyl-piperidin-4-yl)-{5-(1-methyl-1H-pyrazol-4-yl)-2-[3-(1-methyl-1H-pyrazol-4-yl)-phenyl]-pyrimidin-4-yl}-amine], the IC50 (in assay [1]; against IRAK4) was less than 100 nM each time.
In the case of `Cn1cc(-c2cccc(-c3ncc(-c4cnn(C)c4)c(NCCN4CCCC4=O)n3)c2)cn1` [Example 39], the half-inhibitory concentration (IC50) was more than 5000 nM in assay [1] and 1000 to 5000 nM against IRAK4.
